{"source": "patent US11931369B1", "about": "“Compositions and methods for treating epilepsy” (POVIVA CORP, priority 2023, dated 2024)", "origin": "cited, not measured here", "note": "Like-named read-outs stand apart in the source and are kept apart here."}
{"smiles": "C=C(C)[C@@H]1CCC(C)=C[C@H]1c1c(O)cc(CCCCC)cc1O", "note": "[Cannabidiol, 2-[(1R,6R)-6-Isopropenyl-3-methylcyclohex-2-en-1-yl]-5-pentylbenzene-1,3-diol]", "values": [{"measurement": "Plasma concentration on Day 22 at target CBD dose, 5 hours, Mean", "setting": "5 mg/kg/day (N = 10)", "value": 72.1, "unit": "ng/mL"}, {"measurement": "Plasma concentration on Day 22 at target CBD dose, Pre-dose, Mean", "setting": "5 mg/kg/day (N = 10)", "value": 23.0, "unit": "ng/mL"}, {"measurement": "Plasma concentration on Day 22 at target CBD dose, […], Mean", "setting": "5 mg/kg/day (N = 10)", "value": 130, "unit": "ng/mL"}, {"measurement": "Plasma concentration on Day 1 at starting CBD dose, 5 hours, Mean", "setting": "5 mg/kg/day group (N = 10)", "value": 10.0, "unit": "ng/mL"}, {"measurement": "Plasma concentration on Day 1 at starting CBD dose, Pre-dose, Mean", "setting": "5 mg/kg/day group (N = 10)", "value": 0, "unit": "ng/mL"}, {"measurement": "Plasma concentration on Day 1 at starting CBD dose, […], Mean", "setting": "5 mg/kg/day group (N = 10)", "value": 37.6, "unit": "ng/mL"}, {"measurement": "Plasma concentration on Day 22 at target CBD dose, 5 hours, Mean", "setting": "10 mg/kg/day (N = 8)", "value": 288, "unit": "ng/mL"}, {"measurement": "Plasma concentration on Day 22 at target CBD dose, Pre-dose, Mean", "setting": "10 mg/kg/day (N = 8)", "value": 62.1, "unit": "ng/mL"}, {"measurement": "Plasma concentration on Day 22 at target CBD dose, […], Mean", "setting": "10 mg/kg/day (N = 8)", "value": 242, "unit": "ng/mL"}, {"measurement": "Plasma concentration on Day 1 at starting CBD dose, 5 hours, Mean", "setting": "10 mg/kg/day group (N = 8)", "value": 11.3, "unit": "ng/mL"}, {"measurement": "Plasma concentration on Day 1 at starting CBD dose, Pre-dose, Mean", "setting": "10 mg/kg/day group (N = 8)", "value": 0, "unit": "ng/mL"}, {"measurement": "Plasma concentration on Day 1 at starting CBD dose, […], Mean", "setting": "10 mg/kg/day group (N = 8)", "value": 34.4, "unit": "ng/mL"}, {"measurement": "Plasma concentration on Day 22 at target CBD dose, 5 hours, Mean", "setting": "20 mg/kg/day (N = 9)", "value": 308, "unit": "ng/mL"}, {"measurement": "Plasma concentration on Day 22 at target CBD dose, Pre-dose, Mean", "setting": "20 mg/kg/day (N = 9)", "value": 121, "unit": "ng/mL"}, {"measurement": "Plasma concentration on Day 22 at target CBD dose, […], Mean", "setting": "20 mg/kg/day (N = 9)", "value": 380, "unit": "ng/mL"}, {"measurement": "Plasma concentration on Day 1 at starting CBD dose, 5 hours, Mean", "setting": "20 mg/kg/day group (N = 9)", "value": 25.3, "unit": "ng/mL"}, {"measurement": "Plasma concentration on Day 1 at starting CBD dose, Pre-dose, Mean", "setting": "20 mg/kg/day group (N = 9)", "value": 0, "unit": "ng/mL"}, {"measurement": "Plasma concentration on Day 1 at starting CBD dose, […], Mean", "setting": "20 mg/kg/day group (N = 9)", "value": 29.3, "unit": "ng/mL"}]}
